Activity calls are given as the source filed them. The calls are words filed in the database; no cut-off is given here.
How the values were obtained:
[1] = Selectivity index, ratio of CC50 for human MT4 cells to EC50 for HIV1; type: toxicity, cell-based; conditions: read-out: Ratio CC50/EC50
[2] = system: Human immunodeficiency virus 1; assay: Antiviral activity against HIV1 in human MT4 cells assessed as inhibition of virus-induced cytopathogenicity by MTT assay; type: functional, organism-based; conditions: Human immunodeficiency virus 1, MT4
[3] = Cytotoxicity against mock-infected human MT4 cells by MTT assay; type: cell-based
[4] = system: Human immunodeficiency virus 1; assay: Antiviral activity against HIV1 with reverse transcriptase Y181C mutation in human MT4 cells assessed as inhibition of virus-induced cytopathogenicity by MTT assay; type: functional, organism-based; conditions: Human immunodeficiency virus 1, MT4
[5] = system: Human immunodeficiency virus 1; assay: Antiviral activity against HIV1 with reverse transcriptase K103N/Y181C mutation in human MT4 cells assessed as inhibition of virus-induced cytopathogenicity by MTT assay; type: functional, organism-based; conditions: for EC50: Human immunodeficiency virus 1, MT4
[6] = molecular target: Human immunodeficiency virus type 1 reverse transcriptase (Human immunodeficiency virus 1, UniProt Q72547); assay: Inhibition of HIV1 recombinant wild type reverse transcriptase
[7] = system: Human immunodeficiency virus 1; assay: Reduction of HIV1 p24 antigen level in virus infected C8166 cells; type: functional; conditions: Human immunodeficiency virus 1, C8166

IC50 [6] [µM]	EC90 [7] [µM]	Structure (SMILES)	selectivity ratio [1]	EC50 [2] [µM]	CC50 [3] [µM]	EC50 [4] [µM]	EC50 [5] [µM]	Activity [5]
		O=[N+]([O-])c1ccc(NC(=S)OCCc2cccc(O)c2)cc1	6.5	3.7	24			
		COc1cccc(CCOC(=S)Nc2ccc(Cl)cc2)c1	1180	0.08	94	12	86	
		CC(COC(=S)Nc1ccc(Cl)c(Cl)c1)c1ccccc1 (racemic)	147	0.3	44			
		CC(COc1ccccc1)OC(=S)Nc1ccc(Cl)cc1 (racemic)	> 63	1.6	> 100			
		S=C(Nc1ccccc1)OCCOc1ccccc1	> 17	5.8	> 100			
		CC(COc1ccccc1)OC(=S)Nc1ccc([N+](=O)[O-])cc1 (racemic)	> 38	2.6	> 100			
		COc1ccc(NC(=S)OCCc2ccccc2)cc1			36			
		COc1cccc(CCOC(=S)Nc2ccc([N+](=O)[O-])cc2)c1	> 500	0.2	> 100	8.3		inactive
		Cc1ccc(CCOC(=S)Nc2ccc([N+](=O)[O-])cc2)cc1	> 333	0.3	> 100	8.6	92	
1.4		Cc1ccc(NC(=S)OC(C)COc2ccccc2)cc1 (racemic)	20	1.2	24			
		S=C(Nc1ccccc1)OCC1(c2ccccc2)CC1	7.3	7	51			
		CC(Cc1ccccc1)OC(=S)Nc1ccccc1 (racemic)	> 11	9	> 100			
		COc1ccccc1CCOC(=S)Nc1ccc(Cl)c(Cl)c1	> 150	0.3	> 45			
		S=C(Nc1ccccc1)OCc1cccc(Oc2ccccc2)c1		> 100	> 100			
		S=C(Nc1ccccc1)OC/C=C/c1ccccc1	> 1.5	67	> 100			
		CC(COC(=S)Nc1ccc(Cl)cc1)c1ccccc1 (racemic)	150	0.2	30	12		inactive
		COc1ccccc1CCOC(=S)Nc1ccc([N+](=O)[O-])cc1	> 1000	0.1	> 100			
		CC(COc1ccccc1)OC(=S)Nc1ccc(F)cc1 (racemic)	> 9	11	> 100			
		O=[N+]([O-])c1ccc(NC(=S)OCCOc2ccccc2)cc1	> 12	8.5	> 100			
		O=C1Nc2ccc(Cl)cc2C(C#CC2CC2)(C(F)(F)F)O1 (single isomer, unassigned) [EFAVIRENZ]					0.04	
		CC(Cc1ccccc1)OC(=S)Nc1ccc([N+](=O)[O-])cc1 (racemic)	30	1.3	39			

IC50 [6] [µM]	EC90 [7] [µM]	Structure (SMILES)	selectivity ratio [1]	EC50 [2] [µM]	CC50 [3] [µM]	EC50 [4] [µM]	EC50 [5] [µM]	Activity [5]
		S=C(Nc1ccccc1)OCC1COc2ccccc2O1 (stereo unspecified)	> 1.9	52	> 100			
		COc1ccc(NC(=S)OCCOc2ccccc2)cc1	2.8	17	48			
		COc1ccc(NC(=S)OC(C)COc2ccccc2)cc1 (racemic)		> 100	> 100			
		O=[N+]([O-])c1ccc(NC(=S)OCCc2ccc(Br)cc2)cc1	> 13	7.9	> 100			
		Cc1cccc(CCOC(=S)Nc2ccc([N+](=O)[O-])cc2)c1	192	0.5	96	8.9	69	
		S=C(Nc1ccccc1)OCc1cccs1	< 1	> 38	38			
		Cc1ccc(NC(=S)OC(C)COc2ccccc2)cc1Cl (racemic)	> 25	4	> 100			
		O=[N+]([O-])c1ccc(NC(=S)OCCc2ccccc2O)cc1	3.6	10	36			
		O=[N+]([O-])c1ccc(NC(=S)OCCc2cccc(Cl)c2)cc1	> 67	1.5	> 100			
		O=[N+]([O-])c1ccc(NC(=S)OCCc2ccccc2Cl)cc1	> 250	0.4	> 100			
		Cc1ccc(NC(=S)OCCOc2ccccc2)cc1	7.4	10	74			
		O=[N+]([O-])c1ccc(NC(=S)OCCc2ccc(O)cc2)cc1	< 1	> 41	41			
		COc1ccc(CCOC(=S)Nc2ccc([N+](=O)[O-])cc2)cc1	> 71	1.4	> 100			
	0.015	S=C(NCCc1ccccn1)Nc1ccc(Br)cn1 [TROVIRDINE]	3000		60			
		Cc1ccccc1CCOC(=S)Nc1ccc([N+](=O)[O-])cc1	> 143	0.7	> 100			
		O=[N+]([O-])c1ccc(NC(=S)OCCOc2ccc(Br)cc2)cc1		> 100	> 100			
		S=C(Nc1ccccc1)OCc1c(Cl)cccc1Cl		> 100	> 100			
		S=C(Nc1ccccc1)OCCSc1ccccc1	> 2.6	38	> 100			
		O=[N+]([O-])c1ccc(NC(=S)OCCc2ccccc2)cc1			> 100			
1		CC(COc1ccccc1)OC(=S)Nc1ccccc1 (racemic)	> 50	2	> 100			
		CC(OC(=S)Nc1ccc(Cl)cc1)c1ccc2ccccc2c1 (racemic)	> 3.8	26	> 100			

IC50 [6] [µM]	EC90 [7] [µM]	Structure (SMILES)	selectivity ratio [1]	EC50 [2] [µM]	CC50 [3] [µM]	EC50 [4] [µM]	EC50 [5] [µM]	Activity [5]
		Oc1ccccc1OCCOC(=S)Nc1ccccc1	> 5.2	19	> 100			
		S=C(Nc1ccc(Cl)cc1)OCCc1ccccc1			> 100			
		S=C(Nc1ccc(Cl)cc1)OCCOc1ccccc1	12	2.9	34			
		CC(COC(=S)Nc1ccc(Cl)c([N+](=O)[O-])c1)c1ccccc1 (racemic)	82	0.5	41			
		S=C(Nc1ccccc1)OCCc1ccccc1			100			
	0.6	CC(COC(=S)Nc1ccc([N+](=O)[O-])cc1)c1ccccc1 (racemic)	> 167	0.6	> 100			
		CC(OC(=S)Nc1ccc(Cl)cc1)c1cccc2ccccc12 (racemic)	> 1.2	82	> 100			
		Cc1ccc(NC(=S)OCCc2ccccc2)cc1			> 100			
		S=C(Nc1ccccc1)OCC(c1ccccc1)c1ccccc1		> 100	> 100			
		CC(OC(=S)Nc1ccc(Cl)cc1)c1ccc(-c2ccccc2)cc1 (racemic)	> 1.8	57	> 100			
		S=C(Nc1ccccc1)OC1Cc2ccccc2C1	> 8.3	12	> 100			
		CC(OC(=S)Nc1ccccc1)c1ccc(Cl)cc1 (racemic)	> 19	5.3	> 100			
		COc1ccccc1CCOC(=S)Nc1ccc(Cl)cc1	614	0.07	43	8.9		inactive
		COc1cccc(CCOC(=S)Nc2ccc(Cl)c([N+](=O)[O-])c2)c1	22	2	43			
		COc1ccccc1CCOC(=S)Nc1ccc(Cl)c([N+](=O)[O-])c1	49	0.9	44			
		CC(OC(=S)Nc1ccc([N+](=O)[O-])cc1)c1ccc(Cl)cc1 (racemic)	> 14	7	> 100			
		O=[N+]([O-])c1ccc(NC(=S)OCCc2ccc(Cl)cc2)cc1	> 7.7	13	> 100			
		S=C(Nc1ccccc1)OCCCc1ccccc1	> 1.5	67	> 100			
		CCC(OC(=S)Nc1ccccc1)c1ccccc1 (racemic)		> 100	> 100			
		COc1cccc(CCOC(=S)Nc2ccc(Cl)c(Cl)c2)c1	44	1	44			
		O=[N+]([O-])c1ccc(OCCOC(=S)Nc2ccc(Cl)cc2)cc1	< 1	> 72	72			
